This note sets out measurements from US10035777B2, “Heterocyclic kinase inhibitors” (priority 2014, dated 2018).

Chain of GST-Xa-hAAK1 (Q2M2I8 whole entry): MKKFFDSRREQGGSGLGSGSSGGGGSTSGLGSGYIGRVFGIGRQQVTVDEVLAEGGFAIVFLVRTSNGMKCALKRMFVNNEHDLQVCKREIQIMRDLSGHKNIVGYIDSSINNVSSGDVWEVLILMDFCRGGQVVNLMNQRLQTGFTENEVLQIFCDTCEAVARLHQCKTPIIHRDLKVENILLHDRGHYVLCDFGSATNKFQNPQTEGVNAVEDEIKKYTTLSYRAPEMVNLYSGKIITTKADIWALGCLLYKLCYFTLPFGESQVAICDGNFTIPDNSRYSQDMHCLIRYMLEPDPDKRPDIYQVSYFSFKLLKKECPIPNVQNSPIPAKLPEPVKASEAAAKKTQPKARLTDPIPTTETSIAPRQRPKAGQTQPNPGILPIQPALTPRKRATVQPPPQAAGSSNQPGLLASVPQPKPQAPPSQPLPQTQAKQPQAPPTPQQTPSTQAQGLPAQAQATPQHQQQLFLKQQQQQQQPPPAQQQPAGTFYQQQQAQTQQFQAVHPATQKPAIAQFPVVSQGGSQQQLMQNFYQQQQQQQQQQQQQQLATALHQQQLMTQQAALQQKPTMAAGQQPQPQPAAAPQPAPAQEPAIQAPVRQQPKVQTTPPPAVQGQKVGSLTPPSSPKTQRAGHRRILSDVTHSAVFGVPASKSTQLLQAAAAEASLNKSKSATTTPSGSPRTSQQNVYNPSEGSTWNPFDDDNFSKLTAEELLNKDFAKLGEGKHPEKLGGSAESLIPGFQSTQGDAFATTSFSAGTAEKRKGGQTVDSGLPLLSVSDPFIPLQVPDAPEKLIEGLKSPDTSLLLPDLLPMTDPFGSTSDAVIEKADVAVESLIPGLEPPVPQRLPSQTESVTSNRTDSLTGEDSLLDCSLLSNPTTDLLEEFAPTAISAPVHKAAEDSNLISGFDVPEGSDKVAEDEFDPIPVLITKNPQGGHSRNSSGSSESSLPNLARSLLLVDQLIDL

The first test addresses GST-Xa-hAAK1 (Homo sapiens (Human), UniProt Q2M2I8). Briefly: biochemical.
Conditions: not given
The method, then:
The assays were performed in U-bottom 384-well plates. […] The reactions were initiated by the combination of bacterially expressed, GST-Xa-hAAK1 with substrates and test compounds. The reactions were incubated at room temperature for 3 hours and terminated by adding 60 μl of 35 mM EDTA buffer to each sample. The reactions were analyzed on the Caliper LabChip 3000 (Caliper, Hopkinton, Mass.) by electrophoretic separation of the fluorescent substrate and phosphorylated product. […] Compounds were dissolved at 10 mM in dimethylsulfoxide (DMSO) and evaluated at eleven concentrations. IC50 values were derived by non-linear regression analysis.
In the case of `CC(C)C[C@@H](N)c1nc2cc(-c3cnco3)ccc2[nH]1` [Example 4, (R)-3-methyl-1-(5-(oxazol-5-yl)-1H-benzo[d]imidazol-2-yl)butan-1-amine], the IC50 was 52 nM.

Regarding `CC(C)C[C@H](N)c1nc2cc(-c3ccncc3)ccc2s1` [Example 97, (S)-3-methyl-1-(5-(pyridin-4-yl)benzo[d]thiazol-2-yl) butan-1-amine], the IC50 was 116 nM.

`CCn1c([C@H](N)CC(C)C)nc2ccc(-c3ccncc3)cc21` [Example 33, (R)-1-(1-ethyl-6-(pyridin-4-yl)-1H-benzo[d]imidazol-2-yl)-3-methylbutan-1-amine]: the IC50 was determined as 108 nM.

Take `CC(C)C[C@@H](N)c1nc2ccc(-c3ccncc3)cc2n1CC(F)(F)F` [Example 37, (R)-3-methyl-1-(6-(pyridin-4-yl)-1-(2,2,2-trifluoroethyl)-1H-benzo[d]imidazol-2-yl)butan-1-amine]: the IC50 was 19 nM.

Take `COc1cc2[nH]c([C@H](N)C3CCCC3)nc2cc1-c1cnco1` [Example 68, (R)-cyclopentyl (6-methoxy-5-(oxazol-5-yl)-1H-benzo[d]imidazol-2-yl) methanamine]: the IC50 stood at 50 nM.

As for `CC(C)C[C@@H](N)c1nc2cc(-c3ccncc3)ccc2[nH]1` [Example 1, (R)-3-methyl-1-(5-(pyridin-4-yl)-1H-benzo[d]imidazol-2-yl)butan-1-amine], the IC50 stood at 37 nM.

Regarding `c1cc(-c2ccc3[nH]c(CC4CCCCC4)nc3c2)ccn1` [Example 72, 2-(cyclohexylmethyl)-5-(pyridin-4-yl)-1H-benzo[d]imidazole], the IC50 was 108 nM.

As to `CN[C@H](CC(C)C)c1nc2cc(-c3ccncc3)ccc2[nH]1` [Example 62, N,3-dimethyl-1-(5-(pyridin-4-yl)-1H-benzo[d]imidazol-2-yl) butan-1-amine], the IC50 came out at 12 nM.

`COc1cc2nc([C@H](N)CC(C)C)[nH]c2cc1-c1cnco1` [Example 29, (R)-1-(5-methoxy-6-(oxazol-5-yl)-1H-benzo[d]imidazol-2-yl)-3-methylbutan-1-amine]: the IC50 came out at 12 nM.

Consider `CC(C)C[C@@H](N)c1nc2cc(-c3cc[nH]n3)ccc2[nH]1` [Example 3, (R)-1-(5-(1H-pyrazol-3-yl)-1H-benzo[d]imidazol-2-yl)-3-methylbutan-1-amine], for which the IC50 amounted to 56 nM.

Regarding `COc1cc2[nH]c(C(N)CC3CCCC3)nc2cc1-c1cnco1` (centres unmarked) [Example 71, 2-cyclopentyl-1-(6-methoxy-5-(oxazol-5-yl)-1H-benzo[d]imidazol-2-yl)ethanamine], the IC50 was 70 nM.

Regarding `CC1(C)CC1c1nc2ccc(-c3ccncc3)cc2[nH]1` (centres unmarked) [Example 49, 2-(2,2-dimethylcyclopropyl)-6-(pyridin-4-yl)-1H-benzo[d]imidazole], the IC50 came to 338 nM.

For `COc1cc2nc([C@H](N)CC(C)C)[nH]c2cc1-c1ccncc1` [Example 47, (R)-1-(5-methoxy-6-(pyridin-4-yl)-1H-benzo[d]imidazol-2-yl)-3-methylbutan-1-amine], the 50% inhibitory concentration (IC50) was 487 nM.

The test is the same for the next values; noted with them: ATP 22 μM; GST-Xa-hAAK1 3.5 nM; room temperature for 3 hours; Caliper LabChip 3000; read-out: AAK1 IC50.
As to `COc1cnccc1-c1ccc2nc([C@H](N)CC(C)C)n(CC(F)(F)F)c2c1` [Example 35, (R)-1-(6-(3-methoxypyridin-4-yl)-1-(2,2,2-trifluoroethyl)-1H-benzo[d]imidazol-2-yl)-3-methylbutan-1-amine], the IC50 worked out at 25 nM.

As to `CC(C(N)c1nc2ccc(-c3ccncc3)cc2[nH]1)C(F)(F)F` (single isomer, unassigned) [Example 53, 3,3,3-trifluoro-2-methyl-1-(6-(pyridin-4-yl)-1H-benzo[d]imidazol-2-yl)propan-1-amine], the IC50 came to 521 nM.

As for `NC(CC(C(F)(F)F)C(F)(F)F)c1nc2cc(-c3ccncc3)ccc2o1` (centres unmarked) [Example 91, 4,4,4-trifluoro-1-(5-(pyridin-4-yl)benzo[d]oxazol-2-yl)-3-(trifluoromethyl)butan-1-amine], the IC50 amounted to 391 nM.

Turning to `CN[C@H](CC(C)C)c1nc2cc(-c3ccnc(N)c3)ccc2[nH]1` [Example 59, (R)-4-(2-(3-methyl-1-(methylamino)butyl)-1H-benzo[d]imidazol-5-yl)pyridin-2-amine], the IC50 turned out to be 7 nM.

For the compound `c1cc(-c2ccc3oc(CCC4CCCC4)nc3c2)ccn1` [Example 92, 2-(2-cyclopentylethyl)-5-(pyridin-4-yl)benzo[d]oxazole], the IC50 amounted to 1700 nM.

As to `COc1cc2[nH]c([C@H](N)C3CCCCC3)nc2cc1-c1cnco1` [Example 64, (R)-cyclohexyl(6-methoxy-5-(oxazol-5-yl)-1H-benzo[d]imidazol-2-yl)methanamine], the IC50 came to 16 nM.

Turning to `CCn1c([C@H](N)CC(C)C)nc2cc(-c3ccncc3)ccc21` [Example 45, (R)-1-(1-ethyl-5-(pyridin-4-yl)-1H-benzo[d]imidazol-2-yl)-3-methylbutan-1-amine], the IC50 turned out to be 749 nM.

For `CC(C)CC(C)c1nc2ccc(-c3ccncc3)cc2o1` (centres unmarked) [Example 87, 2-(4-methylpentan-2-yl)-6-(pyridin-4-yl)benzo[d]oxazole], the IC50 was 92 nM.

On to `c1cc(-c2ccc3[nH]c(CC4CCCC4)nc3c2)ccn1` [Example 99, 2-(cyclopentylmethyl)-5-(pyridin-4-yl)-1H-benzo[d]imidazole], for which the half-maximal inhibitory concentration (IC50) stood at 105 nM.

Regarding `CC1CC1c1nc2ccc(-c3ccncc3)cc2[nH]1` (centres unmarked) [Example 48, 2-(2-methylcyclopropyl)-6-(pyridin-4-yl)-1H-benzo[d]imidazole], the IC50 was found to be 897 nM.

For `COc1cnccc1-c1ccc2[nH]c(CCC(C)C)nc2c1` [Example 56, 2-isopentyl-5-(3-methoxypyridin-4-yl)-1H-benzo[d]imidazole], the IC50 amounted to 620 nM.

On to `CC(C)CC(C)(N)c1nc2ccc(-c3cnco3)cc2[nH]1` (centres unmarked) [Example 103, 4-methyl-2-(6-(oxazol-5-yl)-1H-benzo[d]imidazol-2-yl)pentan-2-amine], for which the IC50 was found to be 158 nM.

In the case of `CC(C)CC(C)c1nc2cc(-c3ccncc3)ccc2[nH]1` (centres unmarked) [Example 58, 2-(4-methylpentan-2-yl)-5-(pyridin-4-yl)-1H-benzo[d]imidazole], the IC50 turned out to be 40 nM.

Regarding `CC(C)C[C@@H](N)c1nc2ccc(-c3cnco3)cc2n1CC(F)(F)F` [Example 36, (R)-3-methyl-1-(6-(oxazol-5-yl)-1-(2,2,2-trifluoroethyl)-1H-benzo[d]imidazol-2-yl)butan-1-amine], the IC50 was found to be 172 nM.

In the case of `COCCn1c([C@H](N)CC(C)C)nc2ccc(-c3ccncc3)cc21` [Example 38, (R)-1-(1-(2-methoxyethyl)-6-(pyridin-4-yl)-1H-benzo[d]imidazol-2-yl)-3-methylbutan-1-amine], the IC50 turned out to be 531 nM.

With `CN[C@H](CC(C)C)c1nc2ccc(-c3cnco3)cc2[nH]1` [Example 101, (R)-N,3-dimethyl-1-(6-(oxazol-5-yl)-1H-benzo[d]imidazol-2-yl) butan-1-amine], the IC50 turned out to be 34 nM.

On to `CCCn1c([C@H](N)CC(C)C)nc2ccc(-c3ccncc3)cc21` [Example 43, (R)-3-methyl-1-(1-propyl-6-(pyridin-4-yl)-1H-benzo[d]imidazol-2-yl)butan-1-amine], for which the IC50 was found to be 103 nM.

`CC(C)(F)CC(N)c1nc2cc(-c3ccncc3)ccc2[nH]1` (centres unmarked) [Example 76, 3-fluoro-3-methyl-1-(5-(pyridin-4-yl)-1H-benzo[d]imidazol-2-yl)butan-1-amine]: the IC50 was 350 nM.

Turning to `CC(C)C[C@@H](N)c1nc2cc(-c3ccnc(C#N)c3)ccc2[nH]1` [Example 15, (R)-4-(2-(1-amino-3-methylbutyl)-1H-benzo[d]imidazol-5-yl)picolinonitrile], the IC50 came out at 289 nM.

As to `CNC(CC(C)C)c1nc2cc(-c3cnco3)c(OC)cc2[nH]1` (centres unmarked) [Example 107, 1-(6-methoxy-5-(oxazol-5-yl)-1H-benzo[d]imidazol-2-yl)-N,3-dimethylbutan-1-amine], the IC50 worked out at 16 nM.

Regarding `CC(C)C[C@@H](N)c1nc2cc(-c3ccncc3)ccc2s1` [Example 96, (R)-3-methyl-1-(5-(pyridin-4-yl)benzo[d]thiazol-2-yl)butan-1-amine], the IC50 was determined as 797 nM.

`CC(C)CCc1nc2cc(-c3ccncc3)ccc2o1` [Example 89, 2-isopentyl-5-(pyridin-4-yl)benzo[d]oxazole]: the IC50 came out at 327 nM.

Regarding `CC(C)C[C@@H](N)c1nc2cc(-c3ccncc3F)ccc2[nH]1` [Example 10, (R)-1-(5-(3-fluoropyridin-4-yl)-1H-benzo[d]imidazol-2-yl)-3-methylbutan-1-amine], the IC50 was determined as 44 nM.

Take `CCn1c([C@H](N)CC(C)C)nc2ccc(-c3cnco3)cc21` [Example 32, (R)-1-(1-ethyl-6-(oxazol-5-yl)-1H-benzo[d]imidazol-2-yl)-3-methylbutan-1-amine]: the IC50 was 450 nM.

Regarding `CC(C)C[C@@H](N)c1nc2cc(-c3ccnc4ccccc34)ccc2[nH]1` [Example 9, (R)-3-methyl-1-(5-(quinolin-4-yl)-1H-benzo[d]imidazol-2-yl)butan-1-amine], the IC50 came to 13 nM.

With `CC(C)C[C@@H](N)c1nc2cc(-c3ccnc(N(C)C)n3)ccc2[nH]1` [Example 14, (R)-4-(2-(1-amino-3-methylbutyl)-1H-benzo[d]imidazol-5-yl)-N,N-dimethylpyrimidin-2-amine], the IC50 was 198 nM.

Still in this test, the particulars now being: read-out: AAK1 IC50.
`COc1cc(-c2ccc3[nH]c([C@H](N)CC(C)C)nc3c2)ccn1` [Example 13, (R)-1-(5-(2-methoxypyridin-4-yl)-1H-benzo[d]imidazol-2-yl)-3-methylbutan-1-amine]: the IC50 turned out to be 171 nM.

For `COc1cc(-c2cc3nc([C@H](N)CC(C)C)[nH]c3cc2OC)ccn1` [Example 28, (R)-1-(6-methoxy-5-(2-methoxypyridin-4-yl)-1H-benzo[d]imidazol-2-yl)-3-methylbutan-1-amine], the concentration for half-maximal inhibition (IC50) was determined as 2000 nM.

As usually defined, the IC50 is the concentration that gives 50% inhibition.
